Source: ChEMBL document CHEMBL1148237, “Bioisosteric replacement of anilide with benzoxazole: potent and orally bioavailable antagonists of VLA-4” (Bioorg Med Chem Lett, 2004)

Experiments:
[1] = Clearance of compound in rat was evaluated; format: ADME, organism-based; conditions: in vivo
Integrin alpha-4/beta-1 [2] = biological target: T1, Integrin alpha-4/beta-1 (Homo sapiens, UniProt P05556+P13612); assay: Inhibition of [Ca2+]/Mg2+ unactivated state of very late antigen 4 (VLA-4); format: protein-complex assay
T1 sequence (P05556 whole entry, one chain of several): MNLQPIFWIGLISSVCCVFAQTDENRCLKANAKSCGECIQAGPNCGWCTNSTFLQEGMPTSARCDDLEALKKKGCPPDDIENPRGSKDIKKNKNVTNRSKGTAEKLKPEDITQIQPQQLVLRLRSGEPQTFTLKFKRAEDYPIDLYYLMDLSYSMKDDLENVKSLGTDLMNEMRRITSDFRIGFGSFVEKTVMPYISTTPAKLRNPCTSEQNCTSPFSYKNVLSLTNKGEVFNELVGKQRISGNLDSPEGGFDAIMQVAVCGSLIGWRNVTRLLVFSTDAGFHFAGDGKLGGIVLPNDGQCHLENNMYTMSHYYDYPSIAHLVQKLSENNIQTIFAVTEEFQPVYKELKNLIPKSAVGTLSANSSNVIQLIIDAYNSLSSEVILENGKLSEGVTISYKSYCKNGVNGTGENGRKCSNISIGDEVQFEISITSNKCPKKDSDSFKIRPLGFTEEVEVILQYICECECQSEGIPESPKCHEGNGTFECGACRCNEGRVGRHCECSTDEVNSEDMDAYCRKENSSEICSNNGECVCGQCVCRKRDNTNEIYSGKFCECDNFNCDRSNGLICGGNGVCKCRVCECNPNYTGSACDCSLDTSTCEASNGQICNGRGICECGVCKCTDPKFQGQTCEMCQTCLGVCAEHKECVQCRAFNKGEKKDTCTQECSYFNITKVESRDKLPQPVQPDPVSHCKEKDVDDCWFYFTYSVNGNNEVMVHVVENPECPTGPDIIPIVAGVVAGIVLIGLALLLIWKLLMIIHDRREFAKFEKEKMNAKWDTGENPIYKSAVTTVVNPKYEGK

Integrin alpha-4/beta-7 = biological target: T2, Integrin alpha-4/beta-7 (Homo sapiens, UniProt P13612+P26010); assay: Inhibition of Mn2+ activated state of alpha4-beta7 integrin; format: protein-complex assay
T2 sequence (P13612 whole entry): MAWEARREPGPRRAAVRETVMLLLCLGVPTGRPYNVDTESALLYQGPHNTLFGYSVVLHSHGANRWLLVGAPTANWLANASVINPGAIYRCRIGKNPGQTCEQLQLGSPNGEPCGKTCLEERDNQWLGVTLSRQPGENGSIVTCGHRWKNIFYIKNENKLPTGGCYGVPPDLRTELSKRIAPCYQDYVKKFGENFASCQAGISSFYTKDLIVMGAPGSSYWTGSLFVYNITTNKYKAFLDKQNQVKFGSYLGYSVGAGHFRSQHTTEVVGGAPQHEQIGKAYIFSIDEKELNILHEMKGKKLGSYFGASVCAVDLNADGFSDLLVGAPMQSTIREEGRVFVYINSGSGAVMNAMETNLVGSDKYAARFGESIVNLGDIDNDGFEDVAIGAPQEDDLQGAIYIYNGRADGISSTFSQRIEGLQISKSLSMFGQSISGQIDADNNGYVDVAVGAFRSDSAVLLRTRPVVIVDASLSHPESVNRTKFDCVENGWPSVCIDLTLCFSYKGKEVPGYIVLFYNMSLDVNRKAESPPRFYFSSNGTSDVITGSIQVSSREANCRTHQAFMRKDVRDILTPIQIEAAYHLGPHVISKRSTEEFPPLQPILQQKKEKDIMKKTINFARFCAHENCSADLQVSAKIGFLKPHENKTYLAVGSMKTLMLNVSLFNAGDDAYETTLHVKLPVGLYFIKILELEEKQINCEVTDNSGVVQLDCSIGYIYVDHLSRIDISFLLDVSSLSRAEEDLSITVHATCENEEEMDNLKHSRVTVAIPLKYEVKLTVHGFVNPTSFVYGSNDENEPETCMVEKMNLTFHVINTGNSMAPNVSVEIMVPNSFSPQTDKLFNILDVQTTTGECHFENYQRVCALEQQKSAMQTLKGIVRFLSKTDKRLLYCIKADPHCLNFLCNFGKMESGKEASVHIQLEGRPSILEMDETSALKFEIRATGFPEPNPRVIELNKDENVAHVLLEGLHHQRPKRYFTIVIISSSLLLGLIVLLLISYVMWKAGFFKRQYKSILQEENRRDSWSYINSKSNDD
T2 sequence (P26010 whole entry): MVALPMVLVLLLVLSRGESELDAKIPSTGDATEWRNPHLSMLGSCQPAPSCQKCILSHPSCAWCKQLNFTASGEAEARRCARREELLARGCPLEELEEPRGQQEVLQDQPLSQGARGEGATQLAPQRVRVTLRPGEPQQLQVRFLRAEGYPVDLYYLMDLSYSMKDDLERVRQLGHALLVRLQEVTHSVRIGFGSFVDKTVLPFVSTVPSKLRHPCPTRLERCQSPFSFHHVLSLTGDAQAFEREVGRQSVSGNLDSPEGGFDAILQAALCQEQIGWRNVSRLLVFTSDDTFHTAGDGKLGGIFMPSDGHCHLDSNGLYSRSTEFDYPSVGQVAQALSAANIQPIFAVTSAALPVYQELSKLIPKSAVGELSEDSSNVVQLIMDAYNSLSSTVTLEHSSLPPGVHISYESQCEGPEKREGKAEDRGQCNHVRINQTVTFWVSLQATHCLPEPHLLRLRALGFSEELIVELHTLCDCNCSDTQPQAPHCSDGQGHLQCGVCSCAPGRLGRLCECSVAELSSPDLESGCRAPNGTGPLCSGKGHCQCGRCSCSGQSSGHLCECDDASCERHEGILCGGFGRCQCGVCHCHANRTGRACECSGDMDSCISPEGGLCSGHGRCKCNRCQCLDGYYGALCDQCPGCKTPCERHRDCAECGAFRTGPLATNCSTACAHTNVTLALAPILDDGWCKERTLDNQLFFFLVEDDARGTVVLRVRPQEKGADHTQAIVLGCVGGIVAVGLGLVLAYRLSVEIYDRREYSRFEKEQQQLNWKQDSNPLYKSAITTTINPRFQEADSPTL

[3] = Bioavailability in rat; format: ADME, organism-based; conditions: in vivo
Integrin alpha-4/beta-1 [4] = biological target: T1, Integrin alpha-4/beta-1; assay: Inhibition of Mn2+ activated state of very late antigen 4 (VLA-4); format: protein-complex assay

SMILES | clearance [1] | IC50 (Integrin alpha-4/beta-1 [2]) | IC50 (Integrin alpha-4/beta-7) | bioavailability [3] | IC50 (Integrin alpha-4/beta-1 [4])
O=C(O)[C@H](Cc1ccc2nc(-c3c(Cl)cccc3Cl)oc2c1)NC(=O)[C@@H]1CCN1S(=O)(=O)c1cc(Cl)cc(Cl)c1 | 24 mL/min/kg | 33 nM | 1690 nM | 8% | 1.7 nM
O=C(N[C@@H](Cc1ccc2[nH]c(-c3c(Cl)cccc3Cl)nc2c1)C(=O)O)c1c(Cl)cccc1Cl | 24 mL/min/kg | 22 nM | 3.2 nM | 1.2% | 0.69 nM
O=C(N[C@@H](Cc1ccc2oc(-c3c(Cl)cccc3Cl)nc2c1)C(=O)O)c1c(Cl)cccc1Cl | 9 mL/min/kg | 52 nM | 5.5 nM | 20% | 0.79 nM
COc1cccc(OC)c1-c1ccc(C[C@H](NC(=O)[C@]2(C)CCN2S(=O)(=O)c2cc(Cl)cc(Cl)c2)C(=O)O)cc1 | 97 mL/min/kg | 0.27 nM |  |  | 
O=C(Nc1ccc(C[C@H](NC(=O)[C@@H]2CCN2S(=O)(=O)c2cc(Cl)cc(Cl)c2)C(=O)O)cc1)c1c(Cl)cccc1Cl | 33 mL/min/kg | 0.31 nM | 22 nM | 0.7% | 0.27 nM
O=C(O)[C@H](Cc1ccc2[nH]c(-c3c(Cl)cccc3Cl)nc2c1)NC(=O)[C@@H]1CCN1S(=O)(=O)c1cc(Cl)cc(Cl)c1 | 21 mL/min/kg | 1.8 nM | 105 nM | 0.3% | 0.54 nM
O=C(N[C@@H](Cc1ccc2oc(-c3c(Cl)cccc3Cl)nc2c1)C(=O)O)c1c(Cl)cncc1Cl | 25 mL/min/kg | 21 nM | 4.3 nM | 25% | 0.34 nM
O=C(O)[C@H](Cc1ccc2oc(-c3c(Cl)cccc3Cl)nc2c1)NC(=O)[C@@H]1CCN1S(=O)(=O)c1cc(Cl)cc(Cl)c1 | 24 mL/min/kg | 3.6 nM | 179 nM | 15% | 0.74 nM
